Structures can show the parent of a compound that is named as a salt. Where two headings read alike, the source gives them in different places.
Key:
Assay type in all cases: cell-based
[1] = test system: NCI-H146 cells (human small-cell lung cancer cell lines); experiment: Cell-growth inhibition test: NCI-H146 cells
Procedure: (§1) Under the following conditions, an in vitro cell-growth inhibition test was performed with respect to HEL cells (human acute myelocytic leukemia cell lines), NCI-H1417 cells (human small-cell lung cancer cell lines), and NCI-H146 cells (human small-cell lung cancer cell lines).
(§2) The cells with the Example compound or with dimethylsulfoxide alone were cultured at 37° C. in a 5% carbon-dioxide-containing incubator for 5 days (HEL cells) or 10 days (NCI-H1417 cells and NCI-H146 cells). After culture, the plate was allowed to stand at room temperature for 30 minutes, and 100 μL of the supernatant was removed from each well to leave 100 μL of the cell culture solution. To each well containing the remaining 100 μL of the cell culture solution, the same amount of CellTiter-Glo 2.0 Assay (Promega, Cat #: G9242) was added. The microplate was shaken with a plate mixer for 1 minute and then allowed to stand in a dark place for 10 minutes. Thereafter, the luminescence intensity of viable cells in each well was measured using a microplate reader (PerkinElmer, EnSpire). […] Cell growth rate(%)=T/C×100 • T: The luminescence intensity in a well to which the test compound was added (count per second) • C: The luminescence intensity in a well to which dimethylsulfoxide alone was added (count per second)

[2] = test system: HEL cells (human acute myelocytic leukemia cell lines); experiment: Cell-growth inhibition test: HEL cells; conditions: read-out: IC50 (nM), Cell-Growth Inhibition Test: HEL Cells
Procedure: as §1, §2

[3] = test system: NCI-H1417 cells (human small-cell lung cancer cell lines); experiment: Cell-growth inhibition test: NCI-H1417 cells
Procedure: as §1, §2

[4] = NCI-H146 cells, read-out: IC50 (nM), Cell-Growth Inhibition Test: NCI-H146 Cells
[5] = read-out: IC50 (nM), Cell-Growth Inhibition Test: NCI-H1417 Cells
[6] = NCI-H1417 cells, read-out: IC50 (nM), Cell-Growth Inhibition Test: NCI-H1417 Cells
[7] = Homo sapiens, NCI-H146, read-out: IC50 (nM), Cell-Growth Inhibition Test: NCI-H146 Cells
[8] = Homo sapiens, NCI-H1417, read-out: IC50 (nM), Cell-Growth Inhibition Test: NCI-H1417 Cells

SMILES | IC50 [1, 4] | IC50 [2] | IC50 [3, 5] | other results
N#Cc1ccc(-c2cc(C(=O)N3[C@@H]4CC[C@H]3[C@@H](N)C4)ccc2-c2cc3nnn(CC4(O)CCC4)c3c(Cl)c2F)cc1F (single isomer, unassigned) [Example 257] | 0.39 nM | 0.13 nM | – | –
CC(C)(O)Cn1nnc2cc(-c3ccc(C(=O)N4[C@@H]5CC[C@H]4[C@@H](N)C5)cc3-c3ccc(C#N)c(F)c3)c(F)c(Br)c21 (single isomer, unassigned) [Example 273] | 0.63 nM | 0.27 nM | – | –
CCC(O)(CC)Cn1ncc2cc(-c3ccc(C(=O)N4[C@@H]5CC[C@H]4[C@@H](N)C5)cc3-c3ccc(C#N)c(F)c3)c(F)cc21 (single isomer, unassigned) [Example 206] | 1.09 nM | 0.4 nM | 0.95 nM | –
CC(C)(O)Cn1nnc2cc(-c3ccc(C(=O)N4[C@@H]5CC[C@H]4[C@@H](N)C5)cc3-c3ccc(C#N)c(F)c3)c(F)c(C(F)F)c21 (single isomer, unassigned) [Example 246] | – | 0.37 nM | 0.81 nM | –
CC(C)(O)CC1OCc2cc(-c3ccc(C(=O)N4[C@@H]5CC[C@H]4[C@@H](N)C5)cc3-c3ccc(C#N)c(F)c3)c(F)cc21 (single isomer, unassigned) [Example 226] | 10.1 nM | 2.56 nM | 5.36 nM | –
CC(C)(O)Cn1ccc2cc(-c3ccc(C(=O)N4C5CCC4CC(N)C5)cc3-c3ccc(C#N)c(F)c3)c(F)c(F)c21 (stereo not drawn) [Example 183, 5′-((3-endo)-3-amino-8-azabicyclo[3.2.1]octane-8-carbonyl)-2′-(6,7-difluoro-1-(2-hydroxy-2-methylpropyl)-1H-indol-5-yl)-3-fluoro-[1,1′-biphenyl]-4-carbonitrile] | 0.25 nM | 0.54 nM | 1.01 nM | –
Cn1nnc2cc(-c3ccc(C(=O)N4C5CCC4CC(N)C5)cc3-c3ccc(C#N)c(F)c3)c(F)cc21 (stereo not drawn) [Example 125, 4-[5-[(3-endo)-3-amino-8-azabicyclo[3.2.1]octane-8-carbonyl]-2-(6-fluoro-1-methyl-benzotriazol-5-yl)phenyl]-2-fluoro-benzonitrile] | – | – | – | IC50 [3, 6]: 8.43 nM; IC50 ([2]; HEL cells): 7.57 nM
Cc1ccc(-c2ccc(CN3[C@@H]4CC[C@H]3[C@@H](N)C4)cc2-c2ccc(C#N)c(F)c2)c(F)c1 (single isomer, unassigned) [Example 283] | 11.1 nM | 0.79 nM | 2.1 nM | –
CC(C)(O)Cn1nnc2cc(-c3ccc(C(=O)N4[C@H]5CC[C@@H]4[C@H](N)C5)cc3-c3ccc(C#N)c(F)c3)c(F)c(C3CC3)c21 (single isomer, unassigned) [Example 279] | – | 1.59 nM | 0.9 nM | –
CC(C)(O)Cc1ccc(-c2ccc(CN3[C@@H]4CC[C@H]3[C@@H](N)C4)cc2-c2ccc(C#N)c(F)c2)c(F)c1 (single isomer, unassigned) [Example 290, dihydrochloride] | 2.12 nM | – | 1.06 nM | –
Cn1cc(C(N)=O)c2cc(-c3ccc(C(=O)N4[C@@H]5CC[C@H]4[C@@H](N)C5)cc3-c3ccc(C#N)c(F)c3)c(F)cc21 (single isomer, unassigned) [Example 236] | 28.5 nM | – | 11 nM | –
CC(C)(O)Cn1ncc2cc(-c3ccc(CN4[C@@H]5CC[C@H]4[C@@H](N)C5)cc3-c3ccc(C#N)c(F)c3)c(F)cc21 (single isomer, unassigned) [Example 287, dihydrochloride] | 0.2 nM | – | 0.1 nM | –
CC(C)(O)Cn1cc(C(=O)O)c2cc(-c3ccc(C(=O)N4[C@@H]5CC[C@H]4[C@@H](N)C5)cc3-c3ccc(C#N)c(F)c3)c(F)cc21 (single isomer, unassigned) [Example 222] | – | 38 nM | 41.8 nM | –
Cc1ccc(-c2ccc(C(=O)N3C4CCC3CC(N)C4)cc2-c2ccc(C#N)cc2)cc1 (stereo not drawn) [Example 7, 4-[5-[(3-exo)-3-amino-8-azabicyclo[3.2.1]octane-8-carbonyl]-2-(p-tolyl)phenyl]benzonitrile] | – | – | – | IC50 [3, 6]: 26 nM; IC50 ([2]; HEL cells): 14.8 nM
Cn1c(=O)sc2cc(-c3ccc(C(=O)N4C5CCC4CC(N)C5)cc3-c3ccc(C#N)c(F)c3)ccc21 (stereo not drawn) [Example 133, 4-[5-[(3-endo)-3-amino-8-azabicyclo[3.2.1]octane-8-carbonyl]-2-(3-methyl-2-oxo-1,3-benzothiazol-6-yl)phenyl]-2-fluoro-benzonitrile] | – | – | – | IC50 [3, 6]: 17.9 nM; IC50 ([2]; HEL cells): 17.7 nM
CC(C)(O)Cn1ncc2cc(-c3ccc(C(=O)N4C5CCC4CC(N)C5)cc3-c3ccc(C#N)c(F)c3)c(F)cc21 (stereo not drawn) [Example 142, 5′-((3-endo)-3-amino-8-azabicyclo[3.2.1]octane-8-carbonyl)-3-fluoro-2′-(6-fluoro-1-(2-hydroxy-2-methylpropyl)-1H-indazol-5-yl)-[1,1′-biphenyl]-4-carbonitrile] | – | 3.88 nM | 3.79 nM | –
Cn1cnc2cc(-c3ccc(C(=O)N4C5CCC4CC(N)C5)cc3-c3ccc(C#N)c(F)c3)c(F)cc21 (stereo not drawn) [Example 108, 4-[5-[(3-exo)-3-amino-8-azabicyclo[3.2.1]octane-8-carbonyl]-2-(6-fluoro-1-methyl-benzimidazol-5-yl)phenyl]-2-fluoro-benzonitrile] | – | – | – | IC50 [3, 6]: 3.99 nM; IC50 ([2]; HEL cells): 36.4 nM
COCCc1ccc(-c2ccc(C(=O)N3C4CCC3CC(NC(C)C)C4)cc2-c2ccc(C#N)c(F)c2)c(F)c1 (stereo not drawn) [Example 112, 2-fluoro-4-[2-[2-fluoro-4-(2-methoxyethyl)phenyl]-5-[(3-exo)-3-(isopropylamino)-8-azabicyclo[3.2.1]octane-8-carbonyl]phenyl]benzonitrile] | – | – | – | IC50 [3, 6]: 20.5 nM
N#Cc1ccc(-c2cc(C(=O)N3CC[C@H](N)C3)ccc2-c2cc3nnn(CC4(O)CCC4)c3c(C(F)F)c2F)cc1F [Example 261, (S)-5′-(3-aminopyrrolidine-1-carbonyl)-2′-(7-(difluoromethyl)-6-fluoro-1-((1-hydroxycyclobutyl)methyl)-1H-benzo[d][1,2,3]triazol-5-yl)-3-fluoro-[1,1′-biphenyl]-4-carbonitrile] | – | – | – | IC50 [1, 7]: 32.3 nM
CC(C)(O)Cn1ncc2cc(-c3ccc(C(=O)N4[C@@H]5CC[C@H]4[C@@H](N)C5)cc3-c3ccc(C#N)c(F)c3)c(F)c(F)c21 (relative stereo) [Example 195, 5′-((1S,2S,4R)-rel-2-amino-7-azabicyclo[2.2.1]heptane-7-carbonyl)-2′-(6,7-difluoro-1-(2-hydroxy-2-methylpropyl)-1H-indazol-5-yl)-3-fluoro-[1,1′-biphenyl]-4-carbonitrile] | – | – | – | IC50 [1, 7]: 1.28 nM
Cn1cnc2cc(-c3ccc(C(=O)N4C5CCC4CC(N)C5)cc3-c3ccc(C#N)c(F)c3)c(F)cc21 (stereo not drawn) [Example 130, 4-[5-[(3-endo)-3-amino-8-azabicyclo[3.2.1]octane-8-carbonyl]-2-(6-fluoro-1-methyl-benzimidazol-5-yl)phenyl]-2-fluoro-benzonitrile] | – | – | – | IC50 [3, 6]: 8.25 nM; IC50 ([2]; HEL cells): 22.2 nM
Cn1c(=O)oc2cc(-c3ccc(C(=O)N4CC[C@H](N)C4)cc3-c3ccc(C#N)c(F)c3)ccc21 [Example 119, 4-[5-[(3S)-3-aminopyrrolidine-1-carbonyl]-2-(3-methyl-2-oxo-1,3-benzooxazol-6-yl)phenyl]-2-fluoro-benzonitrile] | – | – | – | IC50 [3, 8]: 23.9 nM
CC(C)(O)Cn1nnc2cc(-c3ccc(C(=O)N4[C@@H]5CC[C@H]4[C@@H](N)C5)cc3-c3ccc(C#N)c(F)c3)c(F)c(Cl)c21 (single isomer, unassigned) [Example 209] | 0.22 nM | 0.24 nM | – | –
COCCc1ccc(-c2ccc(C(=O)N3CCCC(N)CC3)cc2-c2ccc(C#N)c(F)c2)c(F)c1 (centres unmarked) [Example 165, 5′-(4-aminoazepan-1-carbonyl)-2″,3-difluoro-4″-(2-methoxyethyl)-[1,1′:2′,1″-terphenyl]-4-carbonitrile] | – | – | – | IC50 [3, 8]: 1.42 nM; IC50 ([2]; Homo sapiens, HEL): 0.62 nM
CC(C)(O)Cn1ccc2cc(-c3ccc(C(=O)C4CC5(CNC5)CN4)cc3-c3ccc(C#N)c(F)c3)c(F)c(F)c21 (centres unmarked) [Example 200, 2′-(6,7-difluoro-1-(2-hydroxy-2-methylpropyl)-1H-indol-5-yl)-3-fluoro-5′-(2,7-diazaspiro[3.4]octane-6-carbonyl)-[1,1′-biphenyl]-4-carbonitrile] | – | – | – | IC50 [3, 8]: 0.18 nM
CCC(O)(CC)Cn1ncc2cc(-c3ccc(C(=O)N4CC[C@H](N)C4)cc3-c3ccc(C#N)c(F)c3)c(F)cc21 [Example 204, (S)-5′-(3-aminopyrrolidine-1-carbonyl)-2′-(1-(2-ethyl-2-hydroxybutyl)-6-fluoro-1H-indazol-5-yl)-3-fluoro-[1,1′-biphenyl]-4-carbonitrile] | – | – | – | IC50 [3, 8]: 1.98 nM

From patent US12435128B2, “Method for predicting therapeutic effect of LSD1 inhibitor based on expression of INSM1” (TAIHO PHARMACEUTICAL CO., LTD., priority 2017, dated 2025)
